Data taken from patent publication US20230120211A1, “HDAC Degrader” (University of Leicester, priority 2020, published 2023).

Assays:
[1] = target: LSD1-CoREST-HDAC1 complex (Homo sapiens, UniProt Q13547); experiment: fluorescent deacetylase assay with the LSD1-CoREST-HDAC1 complex (Example 2, FIG. 3A); type: biochemical
Experimental: The inventors evaluated their preliminary PROTACs in vitro using an established fluorescent deacetylase assay with the LSD1-CoREST-HDAC1 complex. This complex was used as an exemplary HDAC multiprotein complex to determine if such heterobifunctional molecules PROTACs 1-4 can still engage the HDAC enzyme in the context of an intact multiprotein complex.
(§1) Inhibition tests against LSD1-HDAC-CoREST complex were performed using a two-enzyme fluorescence-based HDAC assay. The inhibitor/PROTACs were dissolved at 50 mM in DMSO, then 1:2 serial dilutions performed using HDAC assay buffer (50 mM Tris pH 7.5, 150 mM NaCl) to afford range of concentrations.
(§2) The assays were performed in black 96-well plates with a reaction volume of 50 μL per well. All determinations were performed in triplicate. […] After an incubation of 20 minutes at 37° C. and 150 rpm, deacetylation was stopped by the addition of 50 μL of a developing solution containing trypsin (50 mM Tris pH 7.5, 100 mM NaCl, 10 mg/mL trypsin). […] HDAC Activity was calculated by subtracting the average blank fluorescence from the well fluorescence. Graphpad Prism software was utilised to determine IC50 values.

HDAC1 [2] = target: T1, HDAC1 (Homo sapiens, UniProt Q13547); experiment: HDAC1 degradation in HCT116 cells, quantitative western blot; type: cell-based; details: for Dmax: HCT-116, 24 h, read-out: HDAC1 Degrader (% Degradation)
T1 construct: endogenous in cells; host or cells: HCT116
T1 sequence (Q13547 whole entry): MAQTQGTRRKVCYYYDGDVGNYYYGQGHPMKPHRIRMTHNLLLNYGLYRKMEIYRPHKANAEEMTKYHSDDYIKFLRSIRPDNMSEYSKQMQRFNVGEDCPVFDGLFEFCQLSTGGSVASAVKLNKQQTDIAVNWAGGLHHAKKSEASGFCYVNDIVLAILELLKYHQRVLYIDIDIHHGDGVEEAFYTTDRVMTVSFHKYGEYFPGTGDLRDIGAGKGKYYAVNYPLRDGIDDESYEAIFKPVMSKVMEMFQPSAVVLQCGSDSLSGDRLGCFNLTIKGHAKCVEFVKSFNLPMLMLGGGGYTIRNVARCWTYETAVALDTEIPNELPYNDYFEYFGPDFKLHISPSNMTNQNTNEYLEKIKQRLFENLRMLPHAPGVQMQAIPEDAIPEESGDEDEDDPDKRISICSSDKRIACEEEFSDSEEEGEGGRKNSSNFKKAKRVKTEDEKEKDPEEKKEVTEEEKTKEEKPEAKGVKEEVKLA
Experimental: (§3) The compounds were screened at 0.1 μM, 1 μM and 10 μM in a HCT116 cell line. The maximum degradation observed irrespective of the concertation was recorded. The screening of the new compounds was done in 6-well plates, 5 mL media, with 400,000 cells per well to increase throughput.
(§4) HCT116 or mES cells were treated 24 hours after seeding. 24 hours post treatment, cells were harvested, lysed in lysis buffer (50 mM Tris-HCl, 150 mM NaCl, 0.5% NP-40, 0.5% Triton X-100) with protease inhibitor (Sigma, P8340), then incubated on ice for 30 minutes, before being centrifuged (18,000 ref, 15 minutes, 4° C.). The supernatant was collected, and protein concentrations quantified via Bradford Assay using Protein Assay Dye Reagent Concentrate (BIO-RAD). For histone extraction, an equal volume of 0.4 N H2SO4 was added to the pellets and the extracts placed at 4° C. overnight. Following overnight incubation, the tubes were centrifuged (18,000 ref, 15 minutes, 4° C.) and then the supernatant (histone extract) collected.
(§5) PageRuler™ Plus Prestained Ladder was used for size standards. After gel electrophoresis at 140V for 75-90 minutes the separated proteins were transferred onto nitrocellulose membrane at 30V for 60 minutes. The membranes were probed with primary antibodies (listed below) for 60-90 minutes. Blots were developed with complimentary IRDye conjugated secondary antibodies and the bands visualised using the Odyssey Infrared Imaging System. Image processing and band intensity quantification was performed using Image Studio Lite.

HDAC2 [3] = target: T2, HDAC2 (Homo sapiens, UniProt Q92769); experiment: HDAC2 degradation in HCT116 cells, quantitative western blot; type: cell-based; details: for Dmax: HCT-116, 24 h, read-out: HDAC 2 Degrader (% Degradation)
T2 construct: endogenous in cells; host or cells: HCT116
T2 sequence (Q92769 whole entry): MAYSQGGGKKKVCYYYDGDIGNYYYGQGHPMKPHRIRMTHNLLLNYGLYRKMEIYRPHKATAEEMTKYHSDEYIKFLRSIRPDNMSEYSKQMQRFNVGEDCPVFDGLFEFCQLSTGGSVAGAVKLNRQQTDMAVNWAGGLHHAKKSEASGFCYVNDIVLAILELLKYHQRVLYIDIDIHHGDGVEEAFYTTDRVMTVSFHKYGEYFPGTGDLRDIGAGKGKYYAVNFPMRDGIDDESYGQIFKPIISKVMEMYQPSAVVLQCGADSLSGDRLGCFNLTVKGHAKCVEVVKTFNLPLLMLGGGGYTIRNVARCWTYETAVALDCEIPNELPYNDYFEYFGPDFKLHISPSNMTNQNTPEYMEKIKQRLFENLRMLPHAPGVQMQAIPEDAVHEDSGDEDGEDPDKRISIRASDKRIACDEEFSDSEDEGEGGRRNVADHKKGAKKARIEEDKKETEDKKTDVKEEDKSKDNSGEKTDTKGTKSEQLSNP
Experimental: as §3, §4, §5

H3K56Ac [4] = experiment: Increase of H3K56Ac (Table 1 screen); type: cell-based, human; details: HCT116 screen; cell line not restated at the table
Experimental: as §3, §4
as §5, with “Western blots were run on NuPAGE™ 4-12% Bis-Tris gels with 20-30 μg of protein or 10 μL of acid-extracted histone loaded per lane, using NuPAGE™ LDS Sample Buffer (4×). PageRuler™” for “PageRuler™”

HDAC3 = target: T3, HDAC3 (Homo sapiens, UniProt O15379); experiment: HDAC3 degradation in HCT116 cells, quantitative western blot; type: cell-based; details: for Dmax: HCT-116, 24 h, HCT116, screened at 0.1, 1 and 10 μM, maximum degradation irrespective of concentration, read-out: HDAC 3 degrader (% Degradation)
T3 construct: endogenous in cells; host or cells: HCT116
T3 sequence (O15379 whole entry): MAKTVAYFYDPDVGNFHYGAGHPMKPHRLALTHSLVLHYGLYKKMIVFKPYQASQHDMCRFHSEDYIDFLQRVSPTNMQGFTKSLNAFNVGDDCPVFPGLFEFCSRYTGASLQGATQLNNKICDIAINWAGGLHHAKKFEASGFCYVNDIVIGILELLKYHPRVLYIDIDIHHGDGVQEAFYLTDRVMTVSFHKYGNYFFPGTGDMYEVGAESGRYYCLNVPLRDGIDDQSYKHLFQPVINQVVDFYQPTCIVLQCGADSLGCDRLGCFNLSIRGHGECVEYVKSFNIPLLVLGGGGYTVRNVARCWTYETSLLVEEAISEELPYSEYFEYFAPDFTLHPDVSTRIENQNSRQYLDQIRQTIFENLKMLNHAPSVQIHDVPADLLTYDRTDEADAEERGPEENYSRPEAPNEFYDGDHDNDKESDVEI
Experimental: as §3, §4, §5

NuRD = NuRD (Homo sapiens, UniProt Q13547); experiment: HDAC inhibition assay, NuRD complex (Table 1); type: biochemical
NuRD, sequence (Q13547 whole entry): as the sequence (Q13547 whole entry) above
NuRD, sequence (Q13330 162-546 partner limits assumed): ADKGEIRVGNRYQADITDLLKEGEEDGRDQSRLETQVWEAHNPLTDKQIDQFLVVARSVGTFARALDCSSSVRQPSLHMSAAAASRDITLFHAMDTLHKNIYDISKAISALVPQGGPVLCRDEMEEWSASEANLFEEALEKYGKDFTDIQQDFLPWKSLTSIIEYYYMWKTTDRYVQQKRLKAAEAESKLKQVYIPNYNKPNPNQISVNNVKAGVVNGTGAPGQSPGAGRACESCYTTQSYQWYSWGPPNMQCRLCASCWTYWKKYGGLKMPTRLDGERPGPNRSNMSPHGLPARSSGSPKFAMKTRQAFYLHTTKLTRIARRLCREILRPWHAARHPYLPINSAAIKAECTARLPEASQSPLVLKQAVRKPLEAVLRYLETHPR
NuRD, sequence (Q09028 whole entry partner): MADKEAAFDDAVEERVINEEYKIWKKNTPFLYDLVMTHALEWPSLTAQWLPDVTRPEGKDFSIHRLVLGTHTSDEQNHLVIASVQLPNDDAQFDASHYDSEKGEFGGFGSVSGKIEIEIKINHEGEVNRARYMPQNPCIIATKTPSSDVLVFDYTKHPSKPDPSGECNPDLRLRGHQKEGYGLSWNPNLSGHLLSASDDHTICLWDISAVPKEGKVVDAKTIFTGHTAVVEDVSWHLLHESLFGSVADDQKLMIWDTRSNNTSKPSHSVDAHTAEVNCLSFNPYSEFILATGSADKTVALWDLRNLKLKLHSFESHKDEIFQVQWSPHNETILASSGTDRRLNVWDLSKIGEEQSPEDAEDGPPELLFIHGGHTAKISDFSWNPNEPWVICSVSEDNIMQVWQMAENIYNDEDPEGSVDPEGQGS

MiDAC = MiDAC (Homo sapiens, UniProt Q13547); experiment: HDAC inhibition assay, MiDAC complex (Table 1); type: biochemical
MiDAC, sequence (Q13547 whole entry): as the sequence (Q13547 whole entry) above
MiDAC, sequence (Q6PJG2 628-887 partner limits assumed): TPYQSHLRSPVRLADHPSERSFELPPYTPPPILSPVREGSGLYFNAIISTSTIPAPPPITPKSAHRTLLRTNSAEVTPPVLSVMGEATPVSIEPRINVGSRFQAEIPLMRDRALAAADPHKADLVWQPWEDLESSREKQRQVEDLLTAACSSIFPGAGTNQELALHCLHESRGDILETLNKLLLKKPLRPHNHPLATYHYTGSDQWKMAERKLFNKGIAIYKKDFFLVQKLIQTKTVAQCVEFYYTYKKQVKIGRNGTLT
MiDAC, sequence (Q9H147 whole entry partner): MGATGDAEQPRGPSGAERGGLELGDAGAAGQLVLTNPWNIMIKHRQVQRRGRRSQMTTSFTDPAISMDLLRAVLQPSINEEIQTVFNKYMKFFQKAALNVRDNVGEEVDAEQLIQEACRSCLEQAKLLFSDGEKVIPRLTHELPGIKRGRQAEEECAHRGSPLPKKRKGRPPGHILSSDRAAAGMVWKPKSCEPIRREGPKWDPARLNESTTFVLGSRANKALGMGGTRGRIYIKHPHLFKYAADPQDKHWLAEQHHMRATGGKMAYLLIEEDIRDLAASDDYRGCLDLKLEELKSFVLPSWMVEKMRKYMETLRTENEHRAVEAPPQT

SMRT = SMRT (Homo sapiens, UniProt O15379); experiment: HDAC inhibition assay, SMRT complex (Table 1); type: biochemical
SMRT, sequence (O15379 whole entry): as the sequence (O15379 whole entry) above
SMRT, sequence (Q9Y618 389-480 partner limits assumed): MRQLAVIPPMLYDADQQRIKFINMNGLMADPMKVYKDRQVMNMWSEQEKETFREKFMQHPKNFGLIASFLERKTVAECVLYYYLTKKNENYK

CoREST = CoREST (Homo sapiens, UniProt Q13547); experiment: HDAC inhibition assay, CoREST complex (Table 1, run under different conditions); type: biochemical; details: Table 1 conditions (differ from FIG. 3)
CoREST, sequence (Q13547 whole entry, other chains not shown): as the sequence (Q13547 whole entry) above
CoREST, sequence (Q9UKL0 86-485 partner limits assumed, other chains not shown): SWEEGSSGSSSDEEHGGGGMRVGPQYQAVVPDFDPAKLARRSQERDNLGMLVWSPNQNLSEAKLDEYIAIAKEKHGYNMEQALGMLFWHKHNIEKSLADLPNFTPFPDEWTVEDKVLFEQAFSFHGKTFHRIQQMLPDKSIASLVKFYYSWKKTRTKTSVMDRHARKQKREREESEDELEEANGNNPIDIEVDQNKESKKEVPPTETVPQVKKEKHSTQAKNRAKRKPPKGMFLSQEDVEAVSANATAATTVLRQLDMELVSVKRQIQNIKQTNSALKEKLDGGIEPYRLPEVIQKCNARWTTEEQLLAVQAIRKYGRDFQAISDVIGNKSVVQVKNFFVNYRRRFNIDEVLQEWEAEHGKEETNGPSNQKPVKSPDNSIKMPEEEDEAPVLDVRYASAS
Experimental: as §1, §2

HDAC1 [5] = target: T1, HDAC1; experiment: HDAC1 degradation in HCT116 cells, quantitative western blot; type: cell-based; details: HCT116, 24 h, 10 nM
H3K56ac [6] = experiment: H3K56ac levels in E14 mouse embryonic stem cells, quantitative western blot; type: cell-based; details: E14 mES cells, 24 h; CI-994 40 μM, Panobinostat 30 nM
Experimental: The inventors proceeded to assess their compounds effects on HDAC activity in cells.
To examine the ability of PROTACs 1-4 to reduce HDAC1, 2 and 3 activity in cells they began by measuring H3K56ac using quantitative western blotting (see FIG. 3B).
as §4
as §5, with “Western blots were run on NuPAGE™ 4-12% Bis-Tris gels with 20-30 μg of protein or 10 μL of acid-extracted histone loaded per lane, using NuPAGE™ LDS Sample Buffer (4×). PageRuler™” for “PageRuler™”

[7] = system: HCT116 colon cancer cell line; experiment: Cell cycle / cell death by FACS in HCT116 colon cancer cell line; type: cell-based, human; details: HCT116, 48 hours, 10 μM
Experimental: The inventors then investigated the effect of PROTAC 4 on the cell cycle in the colon cancer HCT116 cell line.
[…] Cells were washed in PBS prior to incubation with […] of propidium iodide and RNase A (10 μg/mL) for 30 min at room temperature in the dark. Samples were analysed using the BD FACSCanto II flow cytometer (BD Biosciences) in the PE A channel with BD FACSDiva software.

H3K9ac = experiment: Histone H3 Lys9 acetylation levels in HCT116 cells; type: cell-based, human; details: HCT116, 24 h, 10 μM
Experimental: Acetylation levels of Histone H3 Lys9 (H3K9ac), another established residue for HDAC activity, were also determined in HCT116 cells after 24 hours treatment with PROTAC 4.
as §4
Western blots were run on NuPAGE™ 4-12% Bis-Tris gels with 20-30 μg of protein or 10 μL of acid-extracted histone loaded per lane, using NuPAGE™ LDS Sample Buffer (4×). PageRuler™ Plus Prestained Ladder was used for size standards. After gel electrophoresis at 140V for 75-90 minutes the separated proteins were transferred onto nitrocellulose membrane at 30V for 60 minutes. […] Image processing and band intensity quantification was performed using Image Studio Lite.

HDAC2 [8] = target: T2, HDAC2; experiment: HDAC2 degradation in HCT116 cells, quantitative western blot; type: cell-based; details: HCT116, 24 h, 10 nM
[9] = HCT116, screened at 0.1, 1 and 10 μM, maximum degradation irrespective of concentration
[10] = HCT116, 24 h, 1 μM, remaining level

LSD1-CoREST-HDAC1 complex, sequence (Q13547 whole entry, other chains not shown): as the sequence (Q13547 whole entry) above
LSD1-CoREST-HDAC1 complex, sequence (Q9UKL0 86-485 partner limits assumed, other chains not shown): as the sequence (Q9UKL0 86-485 partner limits assumed, other chains not shown) above

Structure (SMILES) | Dmax (HDAC1 [2]; [9]) | Dmax (HDAC2 [3]; [9]) | Increase H3K56Ac (Y/N/partial) (H3K56Ac [4]) | Dmax (HDAC3) | IC50 (NuRD) | IC50 (MiDAC) | IC50 (SMRT) | IC50 (CoREST) | further results
CC(=O)Nc1ccc(C(=O)Nc2ccccc2NC(=O)OC(C)(C)C)cc1 [Compound 5, Tert-butyl (2-(4-acetamidobenzamido)phenyl)carbamate, reference compound] |  |  |  |  |  |  |  |  | HDAC inhibition ([1]; LSD1-CoREST-HDAC1 complex): no HDAC inhibition
Cc1ncsc1-c1ccc(CNC(=O)[C@@H]2C[C@@H](O)CN2C(=O)[C@@H](NC(=O)COCCCCCCCCCOCC(=O)Nc2ccc(C(=O)Nc3ccc(F)cc3N)cc2)C(C)(C)C)cc1 [PROTAC20, (2S,4R)-1-((S)-2-(2-((9-(2-((4-((2-amino-4-fluorophenyl)carbamoyl)phenyl)amino)-2-oxoethoxy)nonyl)oxy)acetamido)-3,3-dimethylbutanoyl)-4-hydroxy-N-(4-(4-methylthiazol-5-yl)benzyl)pyrrolidine-2-carboxamide] | 51% | 26% | partial | 67% |  |  |  |  | 
Cc1ncsc1-c1ccc(CNC(=O)[C@@H]2C[C@@H](O)CN2C(=O)[C@@H](NC(=O)COCCCCCCCCC(=O)Nc2ccc(C(=O)Nc3ccccc3N)cc2)C(C)(C)C)cc1 [PROTAC13, (2S,4R)-1-((S)-2-(2-((9-((4-((2-aminophenyl)carbamoyl)phenyl)amino)-9-oxononyl)oxy)acetamido)-3,3-dimethylbutanoyl)-4-hydroxy-N-(4-(4-methylthiazol-5-yl)benzyl)pyrrolidine-2-carboxamide] | 58% | 52% |  | 69% | 1180 nM | 1430 nM | 345 nM | 845 nM | 
CN[C@@H](C)C(=O)N[C@H](C(=O)N1C[C@@H](NC(=O)COCCOCCOCC(=O)Nc2ccc(C(=O)Nc3ccccc3N)cc2)C[C@H]1C(=O)N[C@@H]1CCCc2ccccc21)C1CCCCC1 [PROTAC28, (2S,4S)-4-(2-(2-(2-(2-((4-((2-aminophenyl)carbamoyl)phenyl)amino)-2-oxoethoxy)ethoxy)ethoxy)acetamido)-1-((S)-2-cyclohexyl-2-((S)-2-(methylamino)propanamido)acetyl)-N-((R)-1,2,3,4-tetrahydronaphthalen-1-yl)pyrrolidine-2-carboxamide] |  |  | partial | 57% |  |  |  |  | HDAC1 Degrader (% Degradation) (HDAC1 [2]; [9]): No; HDAC 2 Degrader (% Degradation) (HDAC2 [3]; [9]): No
Cc1ncsc1-c1ccc(CNC(=O)[C@@H]2C[C@@H](O)CN2C(=O)[C@@H](NC(=O)CCCCCCCCCCC(=O)Nc2ccc(C(=O)Nc3ccc(F)cc3N)cc2)C(C)(C)C)cc1 [PROTAC17, N1-(4-((2-amino-4-fluorophenyl)carbamoyl)phenyl)-N12-((S)-1-((2S,4R)-4-hydroxy-2-((4-(4-methylthiazol-5-yl)benzyl)carbamoyl)pyrrolidin-1-yl)-3,3-dimethyl-1-oxobutan-2-yl)dodecanediamide] | 58% | 21% | partial | 46% |  |  | 860 nM | 3810 nM | 
Cc1ncsc1-c1ccc(CNC(=O)[C@@H]2C[C@@H](O)CN2C(=O)[C@@H](NC(=O)CCCCCCCCCCC(=O)Nc2ccc(C(=O)Nc3ccccc3N)cc2)C(C)(C)C)cc1 [PROTAC4, N1-(4-((2-aminophenyl)carbamoyl)phenyl)-N12-((S)-1-((2S,4R)-4-hydroxy-2-((4-(4-methylthiazol-5-yl)benzyl)carbamoyl)pyrrolidin-1-yl)-3,3-dimethyl-1-oxobutan-2-yl)dodecanediamide] | 85% | 76% |  | 63% | 418 nM | 336 nM | 414 nM | 394 nM | HDAC1 degradation (HDAC1 [2]; HCT116, 24 h, 1 μM): approximately 50%; HDAC1 level (DMSO control = 100%) (HDAC1 [2]; [10]): 40-48%; HDAC1 degradation (HDAC1 [2]; HCT116, 24 h, 10 μM): near complete degradation; HDAC1 levels (HDAC1 [5]): not recovered; HDAC2 degradation (HDAC2 [3]; HCT116, 24 h, 1 μM): approximately 50%; HDAC2 level (DMSO control = 100%) (HDAC2 [3]; [10]): 40-48%; HDAC2 degradation (HDAC2 [3]; HCT116, 24 h, 10 μM): near complete degradation; HDAC3 degradation (HDAC3; HCT116, 24 h, 1 μM): approximately 50%; HDAC3 level (DMSO control = 100%) (HDAC3; [10]): 40-48%; HDAC3 levels (HDAC3; HCT116, 24 h, 10 μM): decreased; H3K56 acetylation level (H3K56ac [6]): increase in acetylation to similar levels; cell death [7]: significant cell death; IC50 ([1]; LSD1-CoREST-HDAC1 complex in vitro): 16800 nM; H3K9 acetylation levels compared to DMSO control (H3K9ac): highly elevated; HDAC2 levels (HDAC2 [8]): not recovered
